Assays:
[1] = PET biodistribution in human patients; assay type: in vivo; settings: mean n=3
Source text: To evaluate the brain permeability of PU-HZ151 into the human brain, we produced the [^124I]-labeled derivative and performed serial PET imaging studies of human patients (n = 3; NCT03371420), and derived time-activity (i.e. standard uptake values (SUV) versus time post-administration) curves for the brain and various other tissues (Fig. 2b). PET data obtained for [^124I]-labeled PU-H71 (NCT01269593 and ref. [39]) were used for comparison. […] The AUC values recorded for [^124I]-PU-HZ151 in the human brain post-single injection are at par with what was measured in the human muscle and lung, supportive of uptake of PU-HZ151 into the human brain (Fig. 2b). Magnetic resonance imaging (MRI), by offering structural and soft tissue resolution, confirmed the presence of PU-HZ151 in the brain tissue (Fig. 2d). […] The secondary outcome of the trial was to measure adverse events following administration of the probe. Safety of [^124I]-PU-HZ151 in human subjects was assessed by evaluation of the incidence, nature, and severity of adverse events and serious adverse events (Supplementary Note 2).
[^124I]-PU-HZ151 and [^124I]-PU-H71 were synthesized in-house by the institutional cyclotron core facility at high specific activity. Analyses of the epichaperome by positron emission tomography (PET-CT) were performed as previously reported. In brief, research PET-CT was performed using an integrated PET-CT scanner (Discovery DSTE, GE Healthcare). CT scans for attenuation correction and anatomic coregistration were performed before tracer injection. Patients received 5 mCi of [^124I]-PU-HZ151 or [^124I]-PU-H71 by peripheral vein over 2 min. PET data were reconstructed using a standard ordered subset expected maximization iterative algorithm. Emission data were corrected for scatter, attenuation, and decay. PET scans were performed 0.5, 3, and 24 h after tracer administration. Numbers in the scale bar indicate upper and lower standardized uptake value (SUV) thresholds that define pixel intensity on PET images. SUV is a pixel value, derived from PET measurements of in vivo radioactivity, quantified as the fraction of the radioactive dose injected found in a cubic centimeter of measured tissue multiplied (ie, normalized) by patient body weight (grams). Maximum Intensity Projection (MIP) 3D images were constructed from the voxels with maximum intensity that fell in the way of parallel rays traced from the viewpoint to the plane of projection. At each pixel the highest data value encountered along the corresponding viewing ray was determined. MRI scans were obtained as part of routine clinical care using hardware and standard data acquisition and processing methods. MRI was obtained using a 1.5T magnet (Signa HDxt, GE Healthcare, Milwaukee, WI). […] Gadopentetate dimeglumine (Magnevist, HealthCare Pharmaceuticals Inc.) was injected though a peripheral angiocatheter at a standard dose (0.2 mL kg^−1 body weight, 40 mL, 2 cc s^−1). For precise localization of tracer uptake to specific neuroanatomical structures, PET brain images were fused to MRI brain images using the Integrated Registration application of the AW Suite software package (GE Healthcare, Milwaukee, Wisconsin, USA).

[2] = biological target: T1, CYP2A6 (Homo sapiens, UniProt P11509); test: Cytochrome P450 profiling, tranylcypromine; assay type: in vitro ADME; settings: for % PU-HZ151 remaining: Tranylcypromine
T1 construct: PU-HZ151 (1 µM) was incubated with human liver microsomes (0.5 mg protein mL^−1); tissue Life Technologies HMMCPL; host or cells: human liver microsomes
T1 sequence (P11509 1-494): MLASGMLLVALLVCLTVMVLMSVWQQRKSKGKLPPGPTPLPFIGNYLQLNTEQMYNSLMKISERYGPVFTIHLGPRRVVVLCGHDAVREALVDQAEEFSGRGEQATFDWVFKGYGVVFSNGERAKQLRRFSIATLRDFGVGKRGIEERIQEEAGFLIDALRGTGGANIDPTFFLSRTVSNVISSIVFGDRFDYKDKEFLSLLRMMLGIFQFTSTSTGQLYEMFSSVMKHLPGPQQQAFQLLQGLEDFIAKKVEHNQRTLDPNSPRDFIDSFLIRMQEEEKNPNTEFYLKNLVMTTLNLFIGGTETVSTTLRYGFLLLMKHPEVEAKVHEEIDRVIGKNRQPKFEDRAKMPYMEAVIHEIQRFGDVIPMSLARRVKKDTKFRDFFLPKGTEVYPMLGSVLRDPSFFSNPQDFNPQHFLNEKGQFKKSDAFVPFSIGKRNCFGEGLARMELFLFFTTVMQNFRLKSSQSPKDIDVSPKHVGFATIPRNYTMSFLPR
Protocol: To identify cytochrome P450 enzymes responsible for PU-HZ151’s metabolism in human liver microsomes the following procedure was followed. Phosphate buffer (100 mM, pH 7.4) was prepared monthly and stored at 4 °C. Frozen stock solutions of human liver microsomes (Life Technologies; Cat# HMMCPL) were used once after thawing and were not refrozen. NADPH stock solution (50 mM) in distilled water was prepared fresh daily. […] The stock solutions of these P450 inhibitors were prepared in DMSO. […] The concentration of the chemical inhibitors used in the assay were furafylline (10 μM), tranylcypromine (2 μM), ketoconazole (1 μM), troleandomycin (20 μM), orphenadrine (50 μM), montelukast (3 μM), sulfaphenazole (10 μM), benzylnirvanol (1 μM), quinidine (1 μM), and 1-aminobenzotriazole (1 mM) for all the P450 enzymes. Timing of the reactions was started following the addition of NADPH/magnesium chloride mix and PU-HZ151. Time-dependent chemical inhibitors (furafylline, troleandomycin, orphenadrine, and 1-aminobenzotriazole) were preincubated with human microsomes in the presence of NADPH and magnesium chloride for 15 min before the addition of PU-HZ151 and timing of reactions was started after addition of PU-HZ151. […] Following brief vortexing and centrifugation, a 200 µL aliquot of the supernatant was transferred to a tube, and 10 µL of haloperidol (1 µg mL^−1) as internal standard was added. Following brief vortexing and centrifugation, 50 µL of supernatant was added to a 96-well plate for subsequent LC-MS/MS analysis. PU-HZ151 was similarly tested as above in the absence of CYP inhibitors for comparative purposes. All samples were assayed in duplicate. […] This was similarly performed for incubations of PU-HZ151 performed in the absence of CYP inhibitor.

## CC(C)(C)CNCCn1c(Sc2cc3c(cc2I)OCO3)nc2c(N)ncnc21 [Compound 85]
[1]; 0.5 h
  SUV average, Brain: 1.12 SUV
  SUV average, Lung: 0.59 SUV
  SUV average, Muscle: 0.87 SUV
[1]; 3 h
  SUV average, Brain: 0.49 SUV
  SUV average, Lung: 0.34 SUV
  SUV average, Muscle: 0.37 SUV
[1]; 24 h
  SUV average, Brain: 0.04 SUV
  SUV average, Lung: 0.1 SUV
  SUV average, Muscle: 0.1 SUV
[2]; 15 min
  % PU-HZ151 remaining: 57.2%
[2]; 30 min
  % PU-HZ151 remaining: 36.6%
[2]; 60 min
  % PU-HZ151 remaining: 18.4%
[2]; tranylcypromine
  inhibition of PU-HZ151 metabolism: essentially no effect

Reference: publication PMC8333062, “Chemical tools for epichaperome-mediated interactome dysfunctions of the central nervous system” (Nature Communications, 2021)
